How the values were obtained:
[1] = test system: choline esterase; details: background description, no test described; cited from earlier work
[2] = test system: choline esterase; assay: choline esterase inhibition, inhibitory signal from hydrogen peroxide generated (choline esterase/choline oxidase, acetylcholine substrate); type: biochemical
Protocol: In this Example, it was intended to confirm the derivatization of carbosulfan (see FIG. 2). Carbosulfan was converted into carbofuran by adding a reduced glutathione (GSH), to a concentration of 5×10^−5M, and a glutathione-transferase (GST), to a concentration of 0.025 U/mL, to 10 mL of a 0.02M Mes buffer solution (pH 6.0) (2-morpholino-ethane sulfonic acid) containing carbosulfan in a variety of concentrations and then allowing each resulting reaction system to stand over at least 30 minutes.
Then, 10 mL of a solution containing 0.1M phosphate buffer solution (pH 7.6) and 0.2M potassium chloride was added to the foregoing solution which had been allowed to stand, to thus obtain a solution having a volume of 20 mL. […]
After bringing these components into contact with one another by allowing them to stand, acetylcholine was added to a concentration of 2×10^−4M to the foregoing solution and then the amount of hydrogen peroxide generated was determined to thus inspect the solution for the activity to inhibit the choline esterase activity. The same solution free of a carbosulfan was used as a control and this was compared with the solutions, which included carbosulfan in a variety of concentrations, based on the detected inhibitory signals corresponding to the quantities of the resulting hydrogen peroxide. […]

CNC(=O)Oc1cccc2c1OC(C)(C)C2 [carbofuran]
ability to inhibit choline esterase [1]: strong activity of inhibiting choline esterase activity

CCCCN(CCCC)SN(C)C(=O)Oc1cccc2c1OC(C)(C)C2 [carbosulfan]
calibration curve of inhibitory signal (FIG. 3) ([2]; after conversion with reduced glutathione (5×10^−5M) and glutathione transferase (0.025 U/mL), at least 30 minutes): almost identical to that observed for the reference material of carbofuran
inhibitory activity (inhibitory signal, calibration curve FIG. 3) ([2]; reference material free of conversion with reduced glutathione and glutathione transferase): only a weak inhibitory activity
